# Non-standard residues stand in square brackets, D forms with d. Residues, ends and D or L forms follow the SMILES beside them. 1Nal = N[C@@H](Cc1cccc2ccccc12)C(=O)O; αMeS = C[C@](N)(CO)C(=O)O; Nle = CCCC[C@H](N)C(=O)O; Aib = CC(C)(N)C(=O)O
# Target: T1, RXFP1 (Homo sapiens, UniProt Q9HBX9)
# T1 sequence (Q9HBX9 1-757): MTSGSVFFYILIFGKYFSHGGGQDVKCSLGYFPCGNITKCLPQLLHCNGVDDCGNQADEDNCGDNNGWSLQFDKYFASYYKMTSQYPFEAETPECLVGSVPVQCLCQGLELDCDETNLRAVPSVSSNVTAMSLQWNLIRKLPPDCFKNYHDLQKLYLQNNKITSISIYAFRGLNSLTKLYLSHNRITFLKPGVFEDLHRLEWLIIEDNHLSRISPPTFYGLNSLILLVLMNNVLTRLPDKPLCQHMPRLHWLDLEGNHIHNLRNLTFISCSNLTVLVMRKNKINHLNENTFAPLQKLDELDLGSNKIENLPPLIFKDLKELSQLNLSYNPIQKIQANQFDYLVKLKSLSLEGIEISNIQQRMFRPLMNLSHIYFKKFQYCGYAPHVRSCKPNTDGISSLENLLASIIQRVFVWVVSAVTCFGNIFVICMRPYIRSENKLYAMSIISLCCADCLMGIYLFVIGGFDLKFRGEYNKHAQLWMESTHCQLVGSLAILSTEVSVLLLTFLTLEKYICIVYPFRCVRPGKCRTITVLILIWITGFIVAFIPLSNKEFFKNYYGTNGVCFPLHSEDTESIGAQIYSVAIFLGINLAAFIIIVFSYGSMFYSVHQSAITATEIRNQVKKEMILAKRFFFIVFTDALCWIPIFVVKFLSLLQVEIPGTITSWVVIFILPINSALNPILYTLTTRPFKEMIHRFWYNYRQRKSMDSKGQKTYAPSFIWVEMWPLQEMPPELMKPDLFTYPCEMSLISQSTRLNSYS
# Assay: OVCAR5 cAMP assay (RXFP1 agonist activity, HTRF)
# Settings: for Emax: OVCAR-5, read-out: cAMP assay in OVCAR 5 cells Emax, maximal intracellular cAMP relative to H2-relaxin in the same test occasion; for EC50: cAMP assay in OVCAR 5 cells EC50 (nM), OVCAR5 cells expressing endogenous RXFP1, cAMP by HTRF, 30 min at 37° C., 1 mM IBMX
Compound,Emax,EC50
CC[C@H](C)[C@H](NC(=O)[C@H](CCC(N)=O)NC(=O)[C@H](C)NC(=O)[C@H](CCCNC(=N)N)NC(=O)[C@@H](NC(=O)[C@H](CCCCN)NC(=O)[C@H](CCC(=O)O)NC(=O)[C@H](CCCNC(=N)N)NC(=O)CNC(=O)[C@H](CCC(=O)O)NC(=O)C(C)(C)N)C(C)C)C(=O)NC(C)(C)C(=O)NC(C)(C)C(=O)N[C@@H](CCC(=O)O)C(=O)NCC(=O)N[C@@H](CCSC)C(=O)N[C@@H](CO)C(=O)N[C@@H](CCCCN)C(=O)N[C@@H](Cc1c[nH]c2ccccc12)C(=O)N[C@@H](CO)C(=O)N[C@@H](CCCCN)C(=O)N[C@@H](CCCNC(=N)N)C(=O)N[C@@H](CCCCN)C(=O)N[C@@H](CCCCN)C(N)=O [compound 12] (H-[Aib]EGREKVRAQI[Aib][Aib]EGMSKWSKRKK-NH2),99%,–
CCCC[C@H](NC(=O)CNC(=O)[C@H](CCC(=O)O)NC(=O)[C@@H](NC(=O)C(C)(C)NC(=O)[C@@H](NC(=O)[C@H](CCC(N)=O)NC(=O)[C@H](C)NC(=O)[C@H](CCCNC(=N)N)NC(=O)[C@@H](NC(=O)[C@H](CCCCN)NC(=O)[C@H](CCC(=O)O)NC(=O)[C@H](CCCNC(=N)N)NC(=O)CNC(=O)[C@H](CCC(=O)O)NC(=O)[C@H](CC(C)C)NC(C)=O)C(C)C)[C@@H](C)CC)[C@@H](C)CC)C(=O)N[C@@H](CO)C(=O)N[C@@H](CCCCN)C(=O)N[C@@H](Cc1c[nH]c2ccccc12)C(=O)N[C@@H](CO)C(=O)N[C@@H](CCCCN)C(=O)N[C@@H](CCCNC(=N)N)C(=O)N[C@@H](CCCCN)C(=O)N[C@@H](CCCCN)C(N)=O [compound 8] (Ac-LEGREKVRAQI[Aib]IEG[Nle]SKWSKRKK-NH2),103%,–
CCCC[C@H](NC(=O)CNC(=O)[C@H](CCC(=O)O)NC(=O)C(C)(C)NC(=O)C(C)(C)NC(=O)[C@@H](NC(=O)[C@H](CCC(N)=O)NC(=O)[C@H](C)NC(=O)[C@H](CCCNC(=N)N)NC(=O)[C@@H](NC(=O)[C@H](CCCCN)NC(=O)[C@H](CCC(=O)O)NC(=O)[C@H](CCCNC(=N)N)NC(=O)CNC(=O)[C@H](CCC(=O)O)NC(=O)[C@H](CC(C)C)NC(C)=O)C(C)C)[C@@H](C)CC)C(=O)N[C@@H](CO)C(=O)N[C@H](C(=O)N[C@@H](Cc1c[nH]c2ccccc12)C(=O)N[C@@H](CO)C(=O)NC(C)(C)C(=O)N[C@@H](CCCNC(=N)N)C(=O)N[C@@H](CCCCN)C(=O)N[C@@H](CCCCNC(C)=O)C(N)=O)[C@@H](C)O [compound 21] (Ac-LEGREKVRAQI[Aib][Aib]EG[Nle]STWS[Aib]RKK(Ac)-NH2),96%,32.8 nM
CC[C@H](C)[C@H](NC(=O)[C@H](CCC(N)=O)NC(=O)C(C)(C)NC(=O)[C@H](CCCNC(=N)N)NC(=O)[C@@H](NC(=O)[C@H](CCCCN)NC(=O)[C@H](CCC(=O)O)NC(=O)[C@H](CCCNC(=N)N)NC(=O)CNC(=O)[C@H](CCC(=O)O)NC(=O)[C@H](CC(C)C)NC(C)=O)C(C)C)C(=O)NC(C)(C)C(=O)N[C@H](C(=O)N[C@@H](CCC(=O)O)C(=O)NCC(=O)N[C@@H](CCSC)C(=O)N[C@@H](CO)C(=O)N[C@@H](CCCCN)C(=O)N[C@@H](Cc1c[nH]c2ccccc12)C(=O)N[C@@H](CO)C(=O)N[C@@H](CCCCN)C(=O)N[C@@H](CCCNC(=N)N)C(=O)N[C@@H](CCCCN)C(=O)N[C@@H](CCCCN)C(N)=O)[C@@H](C)CC [compound 7] (Ac-LEGREKVR[Aib]QI[Aib]IEGMSKWSKRKK-NH2),101%,–
CCCC[C@H](NC(=O)CNC(=O)[C@H](CCC(=O)O)NC(=O)C(C)(C)NC(=O)C(C)(C)NC(=O)[C@@H](NC(=O)[C@H](CCC(N)=O)NC(=O)[C@H](C)NC(=O)[C@H](CCCNC(=N)N)NC(=O)[C@@H](NC(=O)[C@H](CCCCN)NC(=O)[C@H](CCC(=O)O)NC(=O)[C@H](CCCNC(=N)N)NC(=O)CNC(=O)[C@H](CCC(=O)O)NC(=O)[C@H](CC(C)C)NC(C)=O)C(C)C)[C@@H](C)CC)C(=O)N[C@@H](CO)C(=O)N[C@@H](CCCCN)C(=O)N[C@@H](Cc1cccc2ccccc12)C(=O)N[C@@H](CO)C(=O)N[C@@H](CCCCN)C(=O)N[C@@H](CCCNC(=N)N)C(=O)N[C@@H](CCCCN)C(=O)N[C@@H](CCCCN)C(N)=O [compound 14] (Ac-LEGREKVRAQI[Aib][Aib]EG[Nle]SK[1Nal]SKRKK-NH2),106%,32.8 nM

# Further lines, results first:
Emax,EC50,Compound
106%,–,CC[C@H](C)[C@H](NC(=O)[C@H](CCC(N)=O)NC(=O)[C@H](C)NC(=O)[C@H](CCCNC(=N)N)NC(=O)[C@@H](NC(=O)[C@H](CCCCN)NC(=O)[C@H](CCC(=O)O)NC(=O)[C@H](CCCNC(=N)N)NC(=O)CNC(=O)[C@H](CCC(=O)O)NC(=O)[C@H](CC(C)C)NC(C)=O)C(C)C)C(=O)NC(C)(C)C(=O)NC(C)(C)C(=O)N[C@@H](CCC(=O)O)C(=O)NCC(=O)N[C@@H](CCSC)C(=O)N[C@@H](CO)C(=O)N[C@H](C(=O)N[C@@H](Cc1c[nH]c2ccccc12)C(=O)N[C@@H](CO)C(=O)NC(C)(C)C(=O)N[C@@H](CCCNC(=N)N)C(N)=O)[C@@H](C)O [compound 41] (Ac-LEGREKVRAQI[Aib][Aib]EGMSTWS[Aib]R-NH2)
99%,9.5 nM,CC[C@H](C)[C@H](NC(=O)[C@H](CCC(N)=O)NC(=O)[C@H](C)NC(=O)[C@H](CCCNC(=N)N)NC(=O)[C@@H](NC(=O)[C@H](CCCCN)NC(=O)[C@H](CCC(=O)O)NC(=O)[C@H](CCCNC(=N)N)NC(=O)CNC(=O)[C@H](CCC(=O)O)NC(=O)[C@H](CC(C)C)NC(C)=O)C(C)C)C(=O)NC(C)(C)C(=O)NC(C)(C)C(=O)N[C@@H](CCC(=O)O)C(=O)NCC(=O)N[C@@H](CCSC)C(=O)N[C@@H](CO)C(=O)N[C@@](C)(CO)C(=O)N[C@@H](Cc1c[nH]c2ccccc12)C(=O)N[C@@H](CO)C(=O)N[C@@H](CCCCN)C(=O)N[C@@H](CCCNC(=N)N)C(N)=O [compound 39] (Ac-LEGREKVRAQI[Aib][Aib]EGMS[αMeS]WSKR-NH2)
102%,–,CC[C@H](C)[C@H](NC(=O)[C@H](CCC(N)=O)NC(=O)[C@H](C)NC(=O)[C@H](CCCNC(=N)N)NC(=O)[C@@H](NC(=O)[C@H](CCCCN)NC(=O)[C@H](CCC(=O)O)NC(=O)[C@H](CCCNC(=N)N)NC(=O)CNC(=O)[C@H](CCC(=O)O)NC(=O)[C@H](CC(C)C)NC(C)=O)C(C)C)C(=O)NC(C)(C)C(=O)NC(C)(C)C(=O)N[C@@H](CCC(=O)O)C(=O)NCC(=O)N[C@@H](CCSC)C(=O)N[C@@H](CO)C(=O)N[C@@H](CCCCN)C(=O)N[C@@H](Cc1c[nH]c2ccccc12)C(=O)N[C@@H](CO)C(=O)N[C@@H](CCCCN)C(=O)N[C@@H](CCCNC(=N)N)C(N)=O [compound 38] (Ac-LEGREKVRAQI[Aib][Aib]EGMSKWSKR-NH2)
104%,251 nM,CC[C@H](C)[C@H](NC(=O)[C@H](CCC(N)=O)NC(=O)C(C)(C)NC(=O)[C@H](CCCNC(=N)N)NC(=O)[C@@H](NC(=O)[C@H](CCCCN)NC(=O)[C@H](CCC(=O)O)NC(=O)[C@H](CCCNC(=N)N)NC(=O)CNC(=O)[C@H](CCC(=O)O)NC(=O)[C@H](CC(C)C)NC(C)=O)C(C)C)C(=O)NC(C)(C)C(=O)NC(C)(C)C(=O)N[C@@H](CCC(=O)O)C(=O)NCC(=O)N[C@@H](CCSC)C(=O)N[C@@H](CO)C(=O)N[C@H](C(=O)N[C@@H](Cc1c[nH]c2ccccc12)C(=O)N[C@@H](CO)C(=O)NC(C)(C)C(=O)N[C@@H](CCCNC(=N)N)C(N)=O)[C@@H](C)O [compound 42] (Ac-LEGREKVR[Aib]QI[Aib][Aib]EGMSTWS[Aib]R-NH2)
103%,–,CC[C@H](C)[C@H](NC(=O)[C@H](CCC(N)=O)NC(=O)[C@H](C)NC(=O)[C@H](CCCNC(=N)N)NC(=O)[C@@H](NC(=O)[C@H](CCCCN)NC(=O)[C@H](CCC(=O)O)NC(=O)[C@H](CCCNC(=N)N)NC(=O)CNC(=O)[C@H](CCC(=O)O)NC(=O)[C@H](CC(C)C)NC(C)=O)C(C)C)C(=O)NC(C)(C)C(=O)NC(C)(C)C(=O)N[C@@H](CCC(=O)O)C(=O)NCC(=O)N[C@@H](CCSC)C(=O)N[C@@H](CO)C(=O)N[C@H](C(=O)N[C@@H](Cc1c[nH]c2ccccc12)C(=O)N[C@@H](CO)C(=O)N[C@@H](CCCCN)C(=O)N[C@@H](CCCNC(=N)N)C(N)=O)[C@@H](C)O [compound 40] (Ac-LEGREKVRAQI[Aib][Aib]EGMSTWSKR-NH2)
92%,–,CCCC[C@H](NC(=O)CNC(=O)[C@H](CCC(=O)O)NC(=O)C(C)(C)NC(=O)C(C)(C)NC(=O)[C@@H](NC(=O)[C@H](CCCCNC(C)=O)NC(=O)[C@H](C)NC(=O)[C@H](CCCNC(=N)N)NC(=O)[C@@H](NC(=O)[C@H](CCCCN)NC(=O)[C@H](CCC(=O)O)NC(=O)[C@H](CCCNC(=N)N)NC(=O)CNC(=O)[C@H](CCC(=O)O)NC(=O)[C@H](CC(C)C)NC(C)=O)C(C)C)[C@@H](C)CC)C(=O)N[C@@H](CO)C(=O)N[C@H](C(=O)N[C@@H](Cc1c[nH]c2ccccc12)C(=O)N[C@@H](CO)C(=O)NC(C)(C)C(=O)N[C@@H](CCCNC(=N)N)C(=O)N[C@@H](CCCCN)C(=O)N[C@@H](CCCCN)C(N)=O)[C@@H](C)O [compound 24] (Ac-LEGREKVRAK(Ac)I[Aib][Aib]EG[Nle]STWS[Aib]RKK-NH2)

# From patent US10988524B2, “Modified relaxin B chain peptides and their therapeutic use” (priority 2018, dated 2021)
